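48-hour exposure; five concentrations; linearly interpolated endpoints. At the TGI there is no net growth.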 Where a SMILES comes first, the peptide text is derived from it. [ ]: non-standard residue; d: D form. The star is where a group is joined. mTyr = N[CH](Cc1cccc(O)c1)C(=O)O; Cbz = O=C(OCc1ccccc1)*; OBn = c1ccc(CO*)cc1
Columns and labels:
Assay in all cases: DTP human tumour cell line panel, 48 h
[1] = system: SF-268 CNS
[2] = system: RPMI-8226 leukemia
[3] = system: TK-10 renal
[4] = system: HCT-15 colon
[5] = system: UACC-257 melanoma
[6] = system: NCI/ADR-RES ovarian
[7] = system: COLO 205 colon
[8] = system: T-47D breast
[9] = system: HCT-116 colon
[10] = system: HCC-2998 colon

Measured: TGI

Cc1ccc2c(=O)cc(-c3ccc(-c4ccccc4)s3)[nH]c2n1
> 91.4 µM: [3]
not listed: [10]
> 100 µM: all other assays above

CCOc1ccc(-n2nnc3c(N)nc(N)nc32)cc1
not listed: [1] | [10]
> 100 µM: all other assays above

Nc1ccc(C(=O)NN2C(=O)C(Cl)C2c2ccccc2)cc1 (stereo not drawn)
not listed: [6] | [8]
> 100 µM: all other assays above

O=C(O)CNC(=O)c1c2ccccc2nc2ccccc12
not listed: [8]
> 100 µM: all other assays above

COC(=O)C(Cc1cccc(O)c1)NC(=O)C(CC(=O)OCc1ccccc1)NC(=O)OCc1ccccc1 (stereo not drawn) (Cbz-Asp(OBn)-[mTyr]-OMe; configuration not given here)
59.5 µM: [8]
not listed: [1] | [6]
> 100 µM: all other assays above

CCN(CC)Cc1sc2nc3ccccc3n2c1-c1ccc(OC)cc1
90.8 µM: [6]
33.1 µM: [2]
77.3 µM: [7]
not listed: [8]
> 100 µM: all other assays above

COc1cc(/C=C(/C#N)C(N)=O)ccc1O
> 82.1 µM: [10]
not listed: [3] | [8]
> 100 µM: all other assays above

C/C(=C/CC[C@]1(CO)CC[C@]2(CO)[C@H](CC[C@@H]3[C@@]4(C)CC[C@H](OC5OCC(O)C(O)C5OC5OC(CO)C(O)C(O)C5O)C(C)(C)[C@@H]4CC[C@]32C)[C@H]1O)CO (stereo partly drawn)
not listed: [4] | [10]
> 100 µM: all other assays above

CCCc1ccc(NCc2cc(OC)c(OC)c(OC)c2)cc1
> 100 µM: [3]
74.7 µM: [5]
48.3 µM: [9]
32.1 µM: [4]
79.2 µM: [1]
37 µM: [2]

Cc1cc(NCCCCCCCNc2cc(C)nc3cc([N+](=O)[O-])ccc23)c2ccc([N+](=O)[O-])cc2n1
3.56 µM: [9]
39 µM: [3]
36.9 µM: [5]
> 55.6 µM: [10]
9.8 µM: [4]
27 µM: [7]
18.5 µM: [8]
7.5 µM: [1]

CCOC(=O)[C@H](Cc1ccc(O)cc1)N=C1[C@H]2CCC[C@]1(O)[C@@](C)([N+](=O)[O-])C2
not listed: [1] | [8]
> 100 µM: all other assays above

COc1ccc(/C=C2\CN(C)C/C(=C\c3ccc(OC)c(OC)c3OC)C2=O)c(OC)c1OC
0.571 µM: [5]
6.22 µM: [8]
0.211 µM: [2]
0.196 µM: [9]
0.335 µM: [10]
2.33 µM: [3]
0.287 µM: [7]
2.01 µM: [1]

O=[As](O)(O)c1ccc(N=Nc2ccc(O)cc2)cc1
not listed: [5] | [10]
> 100 µM: all other assays above

CC(NC(C)(C)C)C(=O)c1cccc(Cl)c1 (stereo not drawn)
not listed: [4] | [6] | [8]
> 100 µM: all other assays above

COc1cc2c(cc1OC)C1(c3ccc(Cl)cc3)ON=C(c3ccccc3)N1CS2 (stereo not drawn)
not listed: [6] | [8]
> 100 µM: all other assays above

[N-]=[N+]=C1C(=O)C2CC3CC(C2)CC1C3
not listed: [6] | [8]
> 100 µM: all other assays above

COC(=O)CC1NC(=O)C1C1(C)OCCO1 (stereo not drawn)
not listed: [6] | [8]
> 100 µM: all other assays above

Cc1ccc(CC(C)N)cc1 (stereo not drawn)
not listed: [6] | [8]
> 100 µM: all other assays above

COc1cc(-c2cc(-c3cc([N+](=O)[O-])c(/C=N/NC(=O)c4ccncc4)o3)ccc2OC)ccc1C
> 100 µM: [1] | [2] | [10] | [3] | [5] | [7]

COc1cccc(NC(=O)C(C#N)=C(SC)SC)c1
not listed: [2] | [8]
> 100 µM: all other assays above
